Source: a compilation of properties of binary mixtures (doi:10.1007/s10953-014-0283-z)

Assay: xn = mol fraction of the nth substance listed
Conditions: 100 kPa

O + CC[NH3+].O=[N+]([O-])[O-]
viscosity (293.15 K, x1 = 1): 0.99 mPa·s
viscosity (298.15 K, x1 = 1): 0.89 mPa·s
viscosity (303.15 K, x1 = 1): 0.81 mPa·s
viscosity (308.15 K, x1 = 1): 0.74 mPa·s
viscosity (318.15 K, x1 = 1): 0.6 mPa·s

CC[NH3+].O=[N+]([O-])[O-] + O
viscosity (293.15 K, x2 = 0): 40.61 mPa·s
viscosity (293.15 K, x2 = 0.2597): 9.91 mPa·s
viscosity (293.15 K, x2 = 0.6776): 3.6 mPa·s
viscosity (293.15 K, x2 = 0.7889): 2.4 mPa·s
viscosity (293.15 K, x2 = 0.8895): 1.64 mPa·s
viscosity (293.15 K, x2 = 0.9499): 1.36 mPa·s
viscosity (298.15 K, x2 = 0): 34.49 mPa·s
viscosity (298.15 K, x2 = 0.1088): 18.13 mPa·s
viscosity (298.15 K, x2 = 0.2597): 8.77 mPa·s
viscosity (298.15 K, x2 = 0.3682): 6.77 mPa·s
viscosity (298.15 K, x2 = 0.47): 5.61 mPa·s
viscosity (298.15 K, x2 = 0.579): 4.46 mPa·s
viscosity (298.15 K, x2 = 0.6776): 3.22 mPa·s
viscosity (298.15 K, x2 = 0.9499): 1.22 mPa·s
viscosity (303.15 K, x2 = 0): 29.65 mPa·s
viscosity (303.15 K, x2 = 0.3682): 6.06 mPa·s
viscosity (303.15 K, x2 = 0.47): 5.04 mPa·s
viscosity (303.15 K, x2 = 0.579): 4 mPa·s
viscosity (303.15 K, x2 = 0.6776): 2.9 mPa·s
viscosity (303.15 K, x2 = 0.9499): 1.1 mPa·s
viscosity (308.15 K, x2 = 0): 25.76 mPa·s
viscosity (308.15 K, x2 = 0.2597): 6.9 mPa·s
viscosity (308.15 K, x2 = 0.3682): 5.41 mPa·s
viscosity (308.15 K, x2 = 0.579): 3.61 mPa·s
viscosity (308.15 K, x2 = 0.6776): 2.62 mPa·s
viscosity (308.15 K, x2 = 0.7889): 1.78 mPa·s
viscosity (308.15 K, x2 = 0.8895): 1.22 mPa·s
viscosity (308.15 K, x2 = 0.9499): 1 mPa·s
viscosity (313.15 K, x2 = 0.1088): 12.2 mPa·s
viscosity (313.15 K, x2 = 0.2597): 6.2 mPa·s
viscosity (313.15 K, x2 = 0.3682): 4.89 mPa·s
viscosity (313.15 K, x2 = 0.47): 4.08 mPa·s
viscosity (313.15 K, x2 = 0.6776): 2.38 mPa·s
viscosity (313.15 K, x2 = 0.7889): 1.62 mPa·s
viscosity (313.15 K, x2 = 0.8895): 1.12 mPa·s
viscosity (313.15 K, x2 = 0.9499): 0.92 mPa·s
viscosity (318.15 K, x2 = 0): 20.12 mPa·s
viscosity (318.15 K, x2 = 0.1088): 10.87 mPa·s
viscosity (318.15 K, x2 = 0.2597): 5.59 mPa·s
viscosity (318.15 K, x2 = 0.3682): 4.43 mPa·s
viscosity (318.15 K, x2 = 0.579): 2.97 mPa·s
viscosity (318.15 K, x2 = 0.6776): 2.17 mPa·s
viscosity (318.15 K, x2 = 0.8895): 1.03 mPa·s
viscosity (318.15 K, x2 = 0.9499): 0.84 mPa·s
